From patent US9446031B2, “Compositions and methods for neovascularization” (National University of Singapore, priority 2012, dated 2016)
Entries after “also recorded” stand apart in the source; their conditions may differ.

Assays:
Format in all cases: cell-based, human
IMR-90 fibroblasts = assay: Proteome profiler of angiogenic proteins secreted by fibroblasts; settings: single agent compared with CPX+S1P
From the text: (§1) FIG. 4: CPX and S1P induce secretion of different angiogenic proteins by endothelial cells and fibroblasts. […] (E) and (J): representative images of 3 proteomic profiler membranes showing differences in protein secretion between CPX and S1P treated group and non-treated group (culture media control). (K) and (L): ELISA quantitation of PlGF and VEGF corroborating semi-quantitative results shown in A-I. The negative values in the plots denote the cellular uptake of the measured proteins as opposed to secrete them. * p<0.05 As the experimental set-up favoured soluble factors as messengers between the two cell types the secretion of angiogenic factors by fibroblasts and endothelial cells in the presence of CPX and S1P, respectively, was assessed. In fibroblasts, CPX+S1P expression of HGF (1.4 fold), IGFBP-2 (1.8 fold), uPA (1.6 fold) and VEGF (11 fold). […] In fibroblasts an increase of VEGF secretion which was 1819±754.1 (±standard error) pg/ml-Million cell-day was confirmed.

IMR90 cells = assay: ELISA of MCP-1 secreted by IMR90 cultured in EC conditioned medium
Method: FIG. 5: Endothelial CM modulates growth factor secretion by fibroblasts. (A) ELISA: fibroblasts secrete 5 times more MCP-1 cultured in EC CM. […] (B) and (C): semi-quantitative proteomic array plots showing clearance of EC secreted endothelin-1 and EGF from culture media in the presence of fibroblasts. […] To study the influence of endothelial cells on fibroblasts IMR90 cells were cultured in EC conditioned medium with or without the addition of CPX+S1P, and quantified factors secreted by fibroblasts by ELISA. […] Endothelial cell CM induced the secretion of MCP-1 by fibroblasts by 3-fold in the absence of any CPX+S1P induction, however, the combination of both pharmacological agents increased MCP-1 secretion by a further 20%.

HUVEC = assay: Proteome profiler of angiogenic proteins secreted by endothelial cells; settings: single agent compared with CPX+S1P
From the text: FIG. 4: CPX and S1P induce secretion of different angiogenic proteins by endothelial cells and fibroblasts. […] (E) and (J): representative images of 3 proteomic profiler membranes showing differences in protein secretion between CPX and S1P treated group and non-treated group (culture media control). (K) and (L): ELISA quantitation of PlGF and VEGF corroborating semi-quantitative results shown in A-I. The negative values in the plots denote the cellular uptake of the measured proteins as opposed to secrete them. * p<0.05 As the experimental set-up favoured soluble factors as messengers between the two cell types the secretion of angiogenic factors by fibroblasts and endothelial cells in the presence of CPX and S1P, respectively, was assessed. Proteome profiler data indicated the increased secretion of several proteins including PlGF (6 fold), IL-8 (3 fold), EGF (2.9 fold) and endothelin-1 (1.5 fold) by CPX+S1P by endothelial cells.

endothelia (HUVEC) = assay: ELISA quantitation of PlGF secretion by endothelial cells
From the text: as §1, with “p<0.05” for “p<0.05 As the experimental set-up favoured soluble factors as messengers between the two cell types the secretion of angiogenic factors by fibroblasts and endothelial cells in the presence of CPX and S1P, respectively, was assessed.”

fibroblasts (IMR-90) = assay: ELISA quantitation of VEGF secretion by fibroblasts
From the text: as §1, with “p<0.05” for “p<0.05 As the experimental set-up favoured soluble factors as messengers between the two cell types the secretion of angiogenic factors by fibroblasts and endothelial cells in the presence of CPX and S1P, respectively, was assessed.”

Structure (SMILES)	increased secretion of HGF, IGFBP-2, uPA and VEGF by fibroblasts, single agent (IMR-90 fibroblasts)	effect on MCP-1 secretion by fibroblasts, monosubstance (IMR90 cells)	increased secretion of PlGF, IL-8, EGF and endothelin-1 by endothelial cells, single agent (HUVEC)	effect on PlGF secretion rate (endothelia (HUVEC))	effect on VEGF secretion (fibroblasts (IMR-90))
Cc1cc(C2CCCCC2)n(O)c(=O)c1 [CPX, ciclopirox olamine]	Highly comparable increases; also recorded: main compound causing the observed upregulation	neither S1P nor CPX were able to increase basal MCP-1 secretion; also recorded: No significant difference	Highly comparable increases; also recorded: main compound causing the observed upregulation	–	–
CCCCCCCCCCCCC/C=C/[C@@H](O)[C@@H](N)COP(=O)(O)O [S1P, sphingosine 1-phosphate]	none were observed	neither S1P nor CPX were able to increase basal MCP-1 secretion; also recorded: No significant difference	none were observed	did not show any effect	did not elicit measurable effects
